Measured values as given in patent US10253007B2, “Taxanes compounds, preparation method therefor, and uses thereof” (Jiangsu Tasly Diyi Pharmaceutical Co., Ltd., priority 2013, dated 2019).
Entries after “also recorded” stand apart in the source; their conditions may differ. Read-outs that look alike come from different tables or passages of the source.

Experiments:
[1] = In vivo oral bioavailability assay (pharmacokinetics); parameters: species or system S.D. rats; settings: rat; for AUC(0-t): 0-24 hours; for MRT inf: read-out: MRT0-∞
Source text: 3. In Vivo Oral Bioavailability Assay
The compound PCMI-31 was synthesized and detected according to the methods provided in the present invention. The internal standard, paclitaxel, was purchased from China's National Institute for the Control of Pharmaceutical and Biological Products (NICPBP). Chromatography-grade acetonitrile was purchased from Sigma-Aldrich Inc. Tween 80 and ethyl acetate were purchased from Aladdin reagent Inc. Male S.D. rats were purchased from Beijing Weitonglihua Inc. and raised in animal house for two weeks.
200 mg of PCMI-31 was dissolved in 4 ml of a mixed solution of Tween 80 and anhydrous ethanol (1:1) to prepare a stock solution at 50 mg/ml and normal saline was added to adjust to a suitable concentration. 12 male S.D. rats (about 300 g of body weight) were taken and divided into two groups after overnight fasting. One group was treated with intravenous injection (5 mg/kg) and the other group was treated orally (60 mg/kg). Blood was sampled in the intravenous group at 0th min, 5th min, 10th min, 20th min, 40th min, 1st h, 2nd h, 4th h, 6th h, 8th h, 12th h, 24th h, while the oral group at 5th min, 15th min, 30th min, 45th min, 1st h, 2nd h, 4th h, 6th h, 8th h, 12th h, 24th h. After 10 min centrifugation of plasma at 4500 rpm, the upper serum was taken and transferred to the corresponding EP tube, placed in a −40° C. freezer for assay.
Agilent 1100 series configuration: Agilent G1313A HPLC autosampler device, 150 mm×2.1 mm C18 Thermo column (particle size 3 μm) reversed-phase column, detection wavelength at 230 nm, column temperature at 30° C., mobile phase of acetonitrile/water (7:3), a flow rate at 0.2 ml/min, injection volume of 20 μl. The mass spectrometry (MS) combined was Thermo Finnigan TSQ Quantum triple quadrupole configurated with electrospray ionization (ESI) in the positive ion mode. The parameters of MS analysis were as follows: spray chamber voltage, 4.0 kv; heated capillary temperature, 350° C.; protective gas (nitrogen); 20 psi; auxiliary gas (nitrogen): 5 psi; collision gas (argon); pressure: 1.5 mmTorr.; Collision energy: CA 17 eV; FA and IFA were 19 eV: IS was 15 eV.
Paclitaxel was selected as an internal standard with a retention time of 3.07 min. Retention time of PCMI-31 was 4.21 min. MS detection condition to PCMI-31 was set as follows: 915→634 m/z; paclitaxel as an internal standard. Detection conditions: 876→308m/z. The concentration range of the standard curve of PCMI-31 was 5-10,000 ng/ml (γ^2>0.99) and the minimum detection limit was 5 ng/ml.
100 μL of plasma samples were taken, into which 100 μL of the internal standard (paclitaxel, 500 ng/ml acetonitrile solution) was added, followed by addition of 3 ml of ethyl acetate after well homogenized via vortex, after 5 min shaking, centrifuging for 8 min at a rotating speed of 4500 rpm. The supernatant was transferred to a clean EP tube with nitrogen to blow to dry under heating condition. After reconstitution with 120 μl mobile phase (CH3CN/H2O=7:3), the solution was centrifuged at 12,000 rpm for 3 min, 100 μl of supernatant was taken and transferred to an autosampler vial. After LC-MS/MS detection, statistical data and pharmacokinetic parameters were processed by Xcallbur® (version 1.3) software (Thermo Finnigan).

BGC-823 gastric cancer = experiment: MTT assay, proliferation inhibition; format: cell-based; settings: Homo sapiens, read-out: Proliferation inhibition rate
Source text: (§1) 1. Cytotoxicity Assay Using Human Tumor Cell Lines
(§2) Paclitaxel was used as the positive drug.

LNCaP prostate cancer = experiment: MTT assay, proliferation inhibition; format: cell-based; settings: Homo sapiens, read-out: Proliferation inhibition rate
Source text: as §1, §2

HCT 116 colon cancer = experiment: MTT assay, proliferation inhibition; format: cell-based; settings: Homo sapiens, read-out: Proliferation inhibition rate
Source text: as §1, §2

HeLa cervical cancer = experiment: MTT assay, proliferation inhibition; format: cell-based; settings: Homo sapiens, read-out: Proliferation inhibition rate
Source text: as §1, §2

HT29 colon cancer = experiment: MTT assay, proliferation inhibition; format: cell-based; settings: Homo sapiens, HT-29, read-out: Proliferation inhibition rate
Source text: as §1, §2

HL60 leukemia = experiment: MTT assay, proliferation inhibition; format: cell-based; settings: Homo sapiens, HL-60, read-out: Proliferation inhibition rate
Source text: as §1, §2

A2780 ovarian cancer = experiment: MTT assay, proliferation inhibition; format: cell-based; settings: Homo sapiens, read-out: Proliferation inhibition rate
Source text: as §1, §2

MCF-7 breast cancer = experiment: MTT assay, proliferation inhibition; format: cell-based; settings: Homo sapiens, MCF7, read-out: Proliferation inhibition rate
Source text: as §1, §2

K562 leukemia = experiment: MTT assay, proliferation inhibition; format: cell-based; settings: Homo sapiens, read-out: Proliferation inhibition rate
Source text: as §1, §2

[2] = system: NCI-H460 non-small cell lung cancer; experiment: MTT assay, proliferation inhibition; format: cell-based; settings: Homo sapiens, read-out: Proliferation inhibition rate
Source text: as §1, §2

MDA-MB-436 breast cancer = experiment: MTT assay, proliferation inhibition; format: cell-based; settings: Homo sapiens, read-out: Proliferation inhibition rate
Source text: as §1, §2

Caco-2 cell monolayer = Caco-2 cell monolayer membrane transport assay; settings: Caco-2 monolayer
Source text: (§3) Caco-2 Cell Monolayer Membrane Transport Assay
(§4) Human-derived colorectal adenocarcinoma cell line Caco-2 cell monolayer model was used to study the bidirectional transport of the target compounds from the apical (AP) side to the basolateral (BL) side and from BL side to AP side. HPLC was used for quantitative analysis to calculate transport parameters, apparent permeability coefficient (Papp) and the efflux ratio.

[3] = Caco-2 cell monolayer membrane transport assay; settings: human; for recovery: Caco-2, Recovery rate in mass
Source text: as §3, §4

[4] = system: breast cancer cell line MCF-7; experiment: IC50 values on breast cancer cell line MCF-7; format: cell-based; settings: Homo sapiens, MCF7, 72 h, read-out: MCF-7(IC50, nM)
In short: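 MCF-7 human breast cancer cells exposed to compounds for 72 h, with paclitaxel as positive control. IC50 from three independent repeats with replicate wells.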

[5] = male, S.D., plasma, intravenous administration 5 mg/kg
[6] = male, S.D., plasma, oral administration 60 mg/kg

## CO[C@H]1C(=O)[C@]2(C)[C@@H](OC(=O)N(C)C)C[C@H]3OC[C@@]3(OC(C)=O)[C@H]2[C@H](OC(=O)c2ccccc2)[C@]2(O)C[C@H](OC(=O)[C@H](O)[C@@H](NC(=O)OC(C)(C)C)c3ccccc3)C(C)=C1C2(C)C [PCMI-31]
[1]; male, S.D., plasma, other: oral or intravenous administration, generally, oral or intravenous administration, read-out: half-life (converted)
  half-life: ~3 h
[1]; male, S.D., plasma, intravenous 5 mg/kg
  AUC(0-t): 3310 ± 1330 ng·h/mL
[1]; [5]
  AUC(0-inf): 3320 ± 1330 ng·h/mL
  Cmax: 7990 ± 3470 ng/mL
  Tmax: 0 h
  MRT inf: 2.58 ± 0.87 h
[1]; male, S.D., plasma, intravenous administration 5 mg/kg, read-out: t1/2 (converted)
  half-life: 3.21 ± 0.53 h
[1]; male, S.D., plasma, oral 60 mg/kg
  AUC(0-t): 4250 ± 2480 ng·h/mL
[1]; [6]
  AUC(0-inf): 4270 ± 2490 ng·h/mL
  Cmax: 922 ± 561 ng/mL
  Tmax: 0.8 ± 0.2 h
  MRT inf: 4.33 ± 0.74 h
[1]; male, S.D., plasma, oral administration 60 mg/kg, read-out: t1/2 (converted)
  half-life: 2.97 ± 0.55 h
[1]; male, S.D., plasma, oral, 60 mg/kg, oral 60 mg/kg vs intravenous 5 mg/kg, read-out: F, absolute oral bioavailability
  bioavailability: 10.7%
[1]; oral 60 mg/kg vs intravenous 5 mg/kg
  F, absolute oral bioavailability: 10.71%
BGC-823 gastric cancer
  inhibition at 1 µM: 96.2%
LNCaP prostate cancer
  inhibition at 1 µM: 82.2%
HCT 116 colon cancer
  inhibition at 1 µM: 60.7%
HeLa cervical cancer
  inhibition at 1 µM: 103%
HT29 colon cancer
  inhibition at 1 µM: 89.4%
HL60 leukemia
  inhibition at 1 µM: 97.8%
A2780 ovarian cancer
  inhibition at 1 µM: 95.6%
MCF-7 breast cancer
  inhibition at 1 µM: 90.8%
K562 leukemia
  inhibition at 1 µM: 93.2%
[2]
  inhibition at 1 µM: 87.7%
MDA-MB-436 breast cancer
  inhibition at 1 µM: 86.3%
Caco-2 cell monolayer
  membrane permeability (in words): highly permeable substrates; also recorded: highest membrane permeability
[3]; Caco-2
  Papp B→A: 26 ×10⁻⁶ cm/s
  efflux ratio: 1.73
[3]; Caco-2, Papp A-B, Caco-2 cell line (21 days), bidirectional transport, Table 5
  Papp A→B: 15 ×10⁻⁶ cm/s
[3]; Caco-2, Papp A-B, Mean, Caco-2, A-B, mean of two samples
  Papp A→B: 10.6 ×10⁻⁶ cm/s
[3]; Caco-2, Papp A-B, Sample-01, Caco-2, A-B, Sample-01
  Papp A→B: 11.2 ×10⁻⁶ cm/s
[3]; Caco-2, Papp A-B, Sample-02, Caco-2, A-B, Sample-02
  Papp A→B: 9.91 ×10⁻⁶ cm/s
[3]; Caco-2, Papp A-to-B, Caco-2
  Papp A→B: > 10 ×10⁻⁶ cm/s
[3]; Mean, Caco-2, A-B, mean of two samples
  recovery: 86.8%
[3]; Sample-01, Caco-2, A-B, Sample-01
  recovery: 83%
[3]; Sample-02, Caco-2, A-B, Sample-02
  recovery: 90.6%
[4]
  IC50: 9.63 ± 0.12 nM
